{
  "source": "ChEMBL document CHEMBL3045361",
  "about": "“Novel GABA-AT inhibitors: QSAR and docking based virtual screening of phenyl substituted -phenyl ethylidene hydrazine analogues” (Med Chem Res, 2011)",
  "molecular_target": "4-aminobutyrate aminotransferase, mitochondrial (Homo sapiens) (UniProt P80404)",
  "sequence (P80404 whole entry)": "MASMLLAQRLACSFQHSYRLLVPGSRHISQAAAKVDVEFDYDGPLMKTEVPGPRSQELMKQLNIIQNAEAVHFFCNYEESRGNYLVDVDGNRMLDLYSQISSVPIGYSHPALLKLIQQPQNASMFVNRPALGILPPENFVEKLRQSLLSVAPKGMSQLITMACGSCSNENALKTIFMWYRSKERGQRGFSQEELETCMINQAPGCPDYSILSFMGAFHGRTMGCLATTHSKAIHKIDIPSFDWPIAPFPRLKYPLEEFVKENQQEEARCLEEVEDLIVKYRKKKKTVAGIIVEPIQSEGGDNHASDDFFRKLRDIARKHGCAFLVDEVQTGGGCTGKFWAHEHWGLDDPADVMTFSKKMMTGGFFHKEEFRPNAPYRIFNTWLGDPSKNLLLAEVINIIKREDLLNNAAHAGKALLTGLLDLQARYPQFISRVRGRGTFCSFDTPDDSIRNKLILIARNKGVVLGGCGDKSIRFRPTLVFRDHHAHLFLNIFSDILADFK",
  "assay": "Inhibition of GABA-AT (unknown origin)",
  "parameters": "concentration or dose not given beside the values",
  "settings": "concentration not given here",
  "data": [
    {"smiles": "N/N=C/Cc1ccc(F)cc1", "values": [
      {"measurement": "inhibition", "value": 61.6, "unit": "%"}
    ]},
    {"smiles": "N/N=C/Cc1ccccc1F", "values": [
      {"measurement": "inhibition", "value": 62.9, "unit": "%"}
    ]},
    {"smiles": "N/N=C/Cc1ccc(C(F)(F)F)cc1", "values": [
      {"measurement": "inhibition", "value": 33.2, "unit": "%"}
    ]},
    {"smiles": "Cc1cccc(C/C=N/N)c1", "values": [
      {"measurement": "inhibition", "value": 75.4, "unit": "%"}
    ]},
    {"smiles": "Cc1ccc(C/C=N/N)cc1", "values": [
      {"measurement": "inhibition", "value": 70.4, "unit": "%"}
    ]},
    {"smiles": "N/N=C/Cc1ccc(Cl)cc1Cl", "values": [
      {"measurement": "inhibition", "value": 59, "unit": "%"}
    ]},
    {"smiles": "N/N=C/Cc1ccccc1", "values": [
      {"measurement": "inhibition", "value": 75.4, "unit": "%"}
    ]},
    {"smiles": "N/N=C/Cc1cccc(C(F)(F)F)c1", "values": [
      {"measurement": "inhibition", "value": 76, "unit": "%"}
    ]},
    {"smiles": "N/N=C/Cc1cccc(Cl)c1", "values": [
      {"measurement": "inhibition", "value": 74.9, "unit": "%"}
    ]},
    {"smiles": "COc1ccccc1C/C=N/N", "values": [
      {"measurement": "inhibition", "value": 60.1, "unit": "%"}
    ]},
    {"smiles": "N/N=C/Cc1ccc(Cl)cc1", "values": [
      {"measurement": "inhibition", "value": 54.2, "unit": "%"}
    ]},
    {"smiles": "N/N=C/Cc1ccccc1C(F)(F)F", "values": [
      {"measurement": "inhibition", "value": 46.3, "unit": "%"}
    ]},
    {"smiles": "Cc1ccccc1C/C=N/N", "values": [
      {"measurement": "inhibition", "value": 51.3, "unit": "%"}
    ]},
    {"smiles": "N/N=C/Cc1ccccc1Cl", "values": [
      {"measurement": "inhibition", "value": 56.1, "unit": "%"}
    ]},
    {"smiles": "N/N=C/Cc1cccc(F)c1", "values": [
      {"measurement": "inhibition", "value": 72.5, "unit": "%"}
    ]},
    {"smiles": "COc1cccc(C/C=N/N)c1", "values": [
      {"measurement": "inhibition", "value": 77.6, "unit": "%"}
    ]},
    {"smiles": "COc1ccc(C/C=N/N)cc1", "values": [
      {"measurement": "inhibition", "value": 66.6, "unit": "%"}
    ]}
  ]
}
